pEC50: −log10 of the molar value.
tested on: HBV; assay: HepAD38 anti-HBV assay: reduction of viral product accumulation (virion DNA qPCR, HBsAg/HBeAg ELISA); type: cell-based; settings: Hepatitis B virus, 120 h; HepAD38 cells; concentration reducing viral product accumulation by 50% relative to no drug controls; harvest five days after compound addition; read-out: HepAD38 EC50
Outline: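 Tetracycline-free HepAD38 cells treated 5 days with compound (1:200 DMSO dilution), or 8 days with media and compound refreshed on d2 and d5. Virion DNA quantified by qPCR; HBsAg or HBeAg by ELISA. EC50 is the concentration reducing viral product accumulation 50% versus no-drug controls.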

First: O=C(CC1(S(=O)(=O)N[C@H]2CC3=C(c4ccn(C(F)F)n4)[C@H](c4ccc(F)cc4Cl)N=C(c4nccs4)N3C2)CC1)NCc1ccccn1 [Example 372]
Second: O=S(=O)(N[C@H]1CC2=C(c3ccn(C(F)F)n3)[C@H](c3ccc(F)cc3Cl)N=C(c3nccs3)N2C1)NC1(Cc2ccccn2)CC1 [Example 325]
The pEC50 of the first is higher: over 7.00 for the first, 6.40 to 7.00 for the second.

`O=C(Nc1ccccc1)N1CCN([C@H]2CC3=C(c4ccn(C(F)F)n4)[C@H](c4ccc(F)cc4Cl)N=C(c4nccs4)N3C2)CC1` [Example 49] and `O=C(O)c1ccc(NC(=O)N2CCN([C@H]3CC4=C(c5ccn(C(F)F)n5)[C@H](c5ccc(F)cc5Cl)N=C(c5nccs5)N4C3)CC2)cc1` [Example 47] cannot be ordered by pEC50: under 6.40 for the first, under 6.40 for the second.

First: CS(=O)(=O)Nc1ccc(NS(=O)(=O)N[C@H]2CC3=C(c4ccn(C(F)F)n4)[C@H](c4ccc(F)cc4Cl)N=C(c4nccs4)N3C2)cc1 [Example 349]
Second: CS(=O)(=O)c1ccc(NS(=O)(=O)N[C@H]2CC3=C(c4ccn(C(F)F)n4)[C@H](c4ccc(F)cc4Cl)N=C(c4nccs4)N3C2)cc1 [Example 347]
The pEC50 of the first is higher: over 7.00 for the first, 6.40 to 7.00 for the second.

First: O=C(N[C@H]1CC2=C(c3ccn(C(F)F)n3)[C@H](c3ccc(F)cc3Cl)N=C(c3nccs3)N2C1)C(=O)c1ccccc1 [Example 419]
Second: CCNC(=O)N[C@H]1CC2=C(c3ccn(C(F)F)n3)[C@H](c3ccc(F)cc3Cl)N=C(c3nccs3)N2C1 [Example 203]
The pEC50 of the first is lower: 6.40 to 7.00 for the first, over 7.00 for the second. The second is the more potent here.

`O=S(=O)(NCC(O)c1ccccn1)N[C@H]1CC2=C(c3ccn(C(F)F)n3)[C@H](c3ccc(F)cc3Cl)N=C(c3nccs3)N2C1` (stereo partly drawn) [Example 308] and `CC[C@H](NS(=O)(=O)N[C@H]1CC2=C(c3ccn(C(F)F)n3)[C@H](c3ccc(F)cc3Cl)N=C(c3nccs3)N2C1)c1ccccn1` [Example 351] cannot be ordered by pEC50: over 7.00 for the first, over 7.00 for the second.

`C=CCNC[C@]1(O)CC2=C(c3ccn(C(F)F)n3)[C@H](c3ccc(F)cc3Cl)N=C(c3nccs3)N2C1` [Example 117] and `C=CCNC[C@]1(N)CC2=C(c3ccn(C(F)F)n3)[C@H](c3ccc(F)cc3Cl)N=C(c3nccs3)N2C1` [Example 147] cannot be ordered by pEC50: under 6.40 for the first, under 6.40 for the second.

First: O=S(=O)(Nc1ccncc1)N[C@H]1CC2=C(c3ccn(C(F)F)n3)[C@H](c3ccc(F)cc3Cl)N=C(c3nccs3)N2C1 [Example 83]
Second: O=S(=O)(Nc1ccc(-c2ccccn2)cc1)N[C@H]1CC2=C(c3ccn(C(F)F)n3)[C@H](c3ccc(F)cc3Cl)N=C(c3nccs3)N2C1 [Example 346]
The pEC50 of the first is lower: 6.40 to 7.00 for the first, over 7.00 for the second. The second is the more potent here.

First: CCOC(=O)/C=C/[C@@]1(F)CC2=C(c3ccn(C(F)F)n3)[C@H](c3ccc(F)cc3Cl)N=C(c3nccs3)N2C1 [Example 173]
Second: C=CC1(F)CC2=C(c3ccn(C(F)F)n3)[C@H](c3ccc(F)cc3Cl)N=C(c3nccs3)N2C1 (stereo partly drawn) [Example 171]
The pEC50 of the first is higher: over 7.00 for the first, 6.40 to 7.00 for the second.

`O=S(=O)(CCN1CCC(O)CC1)N[C@H]1CC2=C(c3ccn(C(F)F)n3)[C@H](c3ccc(F)cc3Cl)N=C(c3nccs3)N2C1` [Example 57] and `O=C(N[C@H]1CC2=C(c3ccn(C(F)F)n3)[C@H](c3ccc(F)cc3Cl)N=C(c3nccs3)N2C1)N1CCC(O)CC1` [Example 208] cannot be ordered by pEC50: over 7.00 for the first, over 7.00 for the second.

`O=S(=O)(N[C@H]1CC2=C(c3ccn(C(F)F)n3)[C@H](c3ccc(F)cc3Cl)N=C(c3nccs3)N2C1)N1CCC(F)(F)CC1` [Example 277] and `CC1(C)CCCN(S(=O)(=O)N[C@H]2CC3=C(c4ccn(C(F)F)n4)[C@H](c4ccc(F)cc4Cl)N=C(c4nccs4)N3C2)C1` [Example 292] cannot be ordered by pEC50: over 7.00 for the first, over 7.00 for the second.

Compared with `C=CC(O)C1(F)CC2=C(c3ccn(C(F)F)n3)[C@H](c3ccc(F)cc3Cl)N=C(c3nccs3)N2C1` (stereo partly drawn) [Example 181], `O/N=C/[C@@]1(F)CC2=C(c3ccn(C(F)F)n3)[C@H](c3ccc(F)cc3Cl)N=C(c3nccs3)N2C1` [Example 180] is lower in pEC50: 6.40 to 7.00 for the first, under 6.40 for the second.

`Fc1ccc([C@@H]2N=C(c3nccs3)N3C[C@@H](Nc4ccc(-c5ccccn5)cc4)CC3=C2c2ccn(C(F)F)n2)c(Cl)c1` [Example 330] and `O=S(=O)(N[C@H]1CC2=C(c3ccn(C(F)F)n3)[C@H](c3ccc(F)cc3Cl)N=C(c3nccs3)N2C1)[C@H]1C[C@@H]1c1ccccn1` [Example 390] fall in the same range of pEC50: 6.40 to 7.00 for the first, 6.40 to 7.00 for the second.

Compared with `O=C(N[C@H]1CC2=C(c3ccn(C(F)F)n3)[C@H](c3ccc(F)cc3Cl)N=C(c3nccs3)N2C1)C1CC(O)C1` (stereo partly drawn) [Example 250], `O=C(N[C@H]1CC2=C(c3ccn(C(F)F)n3)[C@H](c3ccc(F)cc3Cl)N=C(c3nccs3)N2C1)N1CCC1` [Example 210] is higher in pEC50: 6.40 to 7.00 for the first, over 7.00 for the second.

`CC(C)(O)[C@H]1CCCN1S(=O)(=O)N[C@H]1CC2=C(c3ccn(C(F)F)n3)[C@H](c3ccc(F)cc3Cl)N=C(c3nccs3)N2C1` [Example 284] and `O=S(=O)(N[C@H]1CC2=C(c3ccn(C(F)F)n3)[C@H](c3ccc(F)cc3Cl)N=C(c3nccs3)N2C1)N1C[C@@H](O)[C@@H](O)C1` [Example 103] cannot be ordered by pEC50: over 7.00 for the first, over 7.00 for the second.

First: O=C1N(CC#Cc2ccccc2)CCN1[C@H]1CC2=C(c3ccn(C(F)F)n3)[C@H](c3ccc(F)cc3Cl)N=C(c3nccs3)N2C1 [Example 48]
Second: O=S(=O)(N[C@H]1CC2=C(c3ccn(C(F)F)n3)[C@H](c3ccc(F)cc3Cl)N=C(c3nccs3)N2C1)C1CC(OCc2ccccc2)C1 (stereo partly drawn) [Example 296]
The pEC50 of the first is lower: under 6.40 for the first, over 7.00 for the second. The second is the more potent here.

First: O=C(N[C@H]1CC2=C(c3ccn(C(F)F)n3)[C@H](c3ccc(F)cc3Cl)N=C(c3nccs3)N2C1)N1CCC(O)(c2ccccn2)CC1 [Example 243]
Second: O=S(=O)(N[C@H]1CC2=C(c3ccn(C(F)F)n3)[C@H](c3ccc(F)cc3Cl)N=C(c3nccs3)N2C1)c1ccc([C@H]2CC[C@@](O)(c3ccccn3)CC2)cc1 [Example 384]
The pEC50 of the first is lower: 6.40 to 7.00 for the first, over 7.00 for the second. The second is the more potent here.

`CN(C)CCS(=O)(=O)N[C@H]1CC2=C(c3ccn(C(F)F)n3)[C@H](c3ccc(F)cc3Cl)N=C(c3nccs3)N2C1` [Example 53] and `CNCCS(=O)(=O)N[C@H]1CC2=C(c3ccn(C(F)F)n3)[C@H](c3ccc(F)cc3Cl)N=C(c3nccs3)N2C1` [Example 52] cannot be ordered by pEC50: over 7.00 for the first, over 7.00 for the second.

First: COC(=O)NC[C@@]1(F)CC2=C(c3ccn(C(F)F)n3)[C@H](c3ccc(F)cc3Cl)N=C(c3nccs3)N2C1 [Example 186]
Second: OCC[C@@]1(F)CC2=C(c3ccn(C(F)F)n3)[C@H](c3ccc(F)cc3Cl)N=C(c3nccs3)N2C1 [Example 168]
The pEC50 of the first is lower: 6.40 to 7.00 for the first, over 7.00 for the second. The second is the more potent here.

Compared with `O=S(=O)(N[C@H]1CC2=C(c3ccn(C(F)F)n3)[C@H](c3ccc(F)cc3Cl)N=C(c3nccs3)N2C1)c1cccc(C2CC2)n1` [Example 408], `O=S(=O)(N[C@H]1CC2=C(c3ccn(C(F)F)n3)[C@H](c3ccc(F)cc3Cl)N=C(c3nccs3)N2C1)c1cccc(-n2cccn2)n1` [Example 423] is lower in pEC50: over 7.00 for the first, 6.40 to 7.00 for the second.

`O=S(=O)(N[C@H]1CC2=C(c3ccn(C(F)F)n3)[C@H](c3ccc(F)cc3Cl)N=C(c3nccs3)N2C1)c1cccc(Cl)c1F` [Example 396] and `O=C(O)c1ccc(Cl)c(S(=O)(=O)N[C@H]2CC3=C(c4ccn(C(F)F)n4)[C@H](c4ccc(F)cc4Cl)N=C(c4nccs4)N3C2)c1` [Example 27] fall in the same range of pEC50: 6.40 to 7.00 for the first, 6.40 to 7.00 for the second.

First: O=S(=O)(NCC1(O)CC1)N[C@H]1CC2=C(c3ccn(C(F)F)n3)[C@H](c3ccc(F)cc3Cl)N=C(c3nccs3)N2C1 [Example 158]
Second: CCNS(=O)(=O)N[C@H]1CC2=C(c3ccn(C(F)F)n3)[C@H](c3ccc(F)cc3Cl)N=C(c3nccs3)N2C1 [Example 76]
The pEC50 of the first is lower: 6.40 to 7.00 for the first, over 7.00 for the second.

`CSC[C@]1(O)CC2=C(c3ccn(C(F)F)n3)[C@H](c3ccc(F)cc3Cl)N=C(c3nccs3)N2C1` [Example 143] and `N#CC[C@@]1(F)CC2=C(c3ccn(C(F)F)n3)[C@H](c3ccc(F)cc3Cl)N=C(c3nccs3)N2C1` [Example 194] fall in the same range of pEC50: 6.40 to 7.00 for the first, 6.40 to 7.00 for the second.

`C=CCN(C[C@]1(O)CC2=C(c3ccn(C(F)F)n3)[C@H](c3ccc(F)cc3Cl)N=C(c3nccs3)N2C1)S(C)(=O)=O` [Example 129] and `O[C@]1(CN2CCOCC2)CC2=C(c3ccn(C(F)F)n3)[C@H](c3ccc(F)cc3Cl)N=C(c3nccs3)N2C1` [Example 138] cannot be ordered by pEC50: under 6.40 for the first, under 6.40 for the second.

`CCCNS(=O)(=O)N[C@H]1CC2=C(c3ccn(C(F)F)n3)[C@H](c3ccc(F)cc3Cl)N=C(c3nccs3)N2C1` [Example 77] and `CCCCS(=O)(=O)N[C@H]1CC2=C(c3ccn(C(F)F)n3)[C@H](c3ccc(F)cc3Cl)N=C(c3nccs3)N2C1` [Example 319] cannot be ordered by pEC50: over 7.00 for the first, over 7.00 for the second.

First: O=S(=O)(N[C@H]1CC2=C(c3ccn(C(F)F)n3)[C@H](c3ccc(F)cc3Cl)N=C(c3nccs3)N2C1)c1cc(Cl)cc(Cl)c1 [Example 395]
Second: O=Cc1cccc(S(=O)(=O)N[C@H]2CC3=C(c4ccn(C(F)F)n4)[C@H](c4ccc(F)cc4Cl)N=C(c4nccs4)N3C2)c1 [Example 333]
The pEC50 of the first is lower: 6.40 to 7.00 for the first, over 7.00 for the second. The second is the more potent here.

Going from `O=C(O)C1CCCN(C(=O)C2CCCN(CCS(=O)(=O)N[C@H]3CC4=C(c5ccn(C(F)F)n5)[C@H](c5ccc(F)cc5Cl)N=C(c5nccs5)N4C3)C2)C1` (stereo partly drawn) [Example 69] to `O=C(O)CCCS(=O)(=O)N[C@H]1CC2=C(c3ccn(C(F)F)n3)[C@H](c3ccc(F)cc3Cl)N=C(c3nccs3)N2C1` [Example 11], the pEC50 rises from under 6.40 to over 7.00.

`COC(=O)c1ccc(CS(=O)(=O)N[C@H]2CC3=C(c4ccn(C(F)F)n4)[C@H](c4ccc(F)cc4Cl)N=C(c4nccs4)N3C2)cc1` [Example 34] and `CS(=O)(=O)CCCS(=O)(=O)N[C@H]1CC2=C(c3ccn(C(F)F)n3)[C@H](c3ccc(F)cc3Cl)N=C(c3nccs3)N2C1` [Example 329] cannot be ordered by pEC50: over 7.00 for the first, over 7.00 for the second.

First: CCOC(=O)C1CCN(S(=O)(=O)N[C@H]2CC3=C(c4ccn(C(F)F)n4)[C@H](c4ccc(F)cc4Cl)N=C(c4nccs4)N3C2)CC1 [Example 87]
Second: Cc1cc(F)c(C(=O)O)cc1S(=O)(=O)N[C@H]1CC2=C(c3ccn(C(F)F)n3)[C@H](c3ccc(F)cc3Cl)N=C(c3nccs3)N2C1 [Example 29]
The pEC50 of the first is higher: over 7.00 for the first, under 6.40 for the second. The first is the more potent here.

`O=S(=O)(N[C@H]1CC2=C(c3ccn(C(F)F)n3)[C@H](c3ccc(F)cc3Cl)N=C(c3nccs3)N2C1)c1cccc(C(F)(F)F)c1` [Example 399] gave a pEC50 of 6.40 to 7.00.
